The values below come from the Kinase Knowledgebase extract (Sharma et al. 2016).

The term IC50 denotes the concentration at which inhibition is half-maximal. A lower IC50 goes with greater potency.

The assay deals with PIK3CB;PIK3CG;PIK3CD;PIK3CA (human) (UniProt P48736). Nature of the assay: Enzyme Assay.

`O=C(c1nn(-c2ccccc2)c2c1CS(=O)(=O)c1ccsc1-2)N1CCOCC1`: the IC50 is 643 nM.

`COC1CCN(Cc2ccc(-n3nc(C(=O)N4CCOCC4)c4c3-c3ccccc3S(=O)(=O)C4)cc2)C1` (stereo not given) showed an IC50 of 59 nM.

`CC1CN(CCN2CCC[C@H](n3nc(C(=O)N4CCOCC4)c4c3-c3ccccc3S(=O)(=O)C4)C2)CCO1` (stereo not given in full) gave an IC50 of 29 nM.

Consider `O=C(c1ccoc1)N1CCC[C@H](n2nc(C(=O)N3CCOCC3)c3c2-c2ccccc2S(=O)(=O)C3)C1`, for which the IC50 stood at 750 nM.

The compound `Cc1ccccc1-c1cccc(-n2nc(C(=O)N3CCOCC3)c3c2-c2ccccc2S(=O)(=O)C3)c1` yielded an IC50 of 1080 nM.

Compound `COc1ccccc1-n1nc(C(=O)N2CCOCC2)c2c1-c1ccccc1S(=O)(=O)C2` displayed an IC50 of 14800 nM.

The compound `O=C(CC1CCOCC1)N1CCC(n2nc(C(=O)N3CCOCC3)c3c2-c2ccccc2S(=O)(=O)C3)C1` (stereo not given) showed an IC50 of 733 nM.

Compound `O=C(Nc1cccnc1)c1cccc(-n2nc(C(=O)N3CCOCC3)c3c2-c2ccccc2S(=O)(=O)C3)c1` displayed a concentration for half-maximal inhibition (IC50) of 926 nM.

As to `CN(C)C(=O)c1ccc2c(c1)-c1c(c(C(=O)N3CCOCC3)nn1-c1ccccc1)CS2(=O)=O`, the IC50 amounted to 3730 nM.

For the compound `O=C(c1nn(C2CCCOC2)c2c1CS(=O)(=O)c1ccccc1-2)N1CCOCC1` (stereo not given), the IC50 worked out at 326 nM.

Compound `O=C(c1nn(-c2ccccc2)c2c1NS(=O)(=O)c1ccccc1-2)N1CCOCC1` gave an IC50 of 5500 nM.

On to `O=C(c1nn(C2CCCN(C3COC3)C2)c2c1CS(=O)(=O)c1ccccc1-2)N1CCOCC1` (stereo not given), for which the IC50 is 67 nM.

In turn, `O=C(c1nn([C@H]2CCN(CCC3CCOCC3)C2)c2c1CS(=O)(=O)c1c(F)cccc1-2)N1CCOCC1` yielded a half-maximal inhibitory concentration (IC50) of 92 nM.

`O=C(c1nn(-c2ccc(CN3CCCCC3)cc2)c2c1CS(=O)(=O)c1ccccc1-2)N1CCOCC1` had an IC50 of 110 nM.

In turn, `CS(=O)(=O)Nc1cccc(-n2nc(C(=O)N3CCOCC3)c3c2-c2ccccc2S(=O)(=O)C3)c1` returned an IC50 of 1780 nM.

Regarding `CC1CCC(n2nc(C(=O)N3CCOCC3)c3c2-c2ccccc2S(=O)(=O)C3)CC1` (stereo not given), the IC50 is 426 nM.

As for `CCc1noc(Cn2nc(C(=O)N3CCOCC3)c3c2-c2ccccc2S(=O)(=O)C3)n1`, the IC50 was found to be 1920 nM.

In the case of `CC1CN(C(=O)c2nn(-c3ccccc3)c3c2CS(=O)(=O)c2ccccc2-3)CCO1` (stereo not given), the IC50 was determined as 2160 nM.

Turning to `O=C(c1nn(-c2ccccc2)c2c1CS(=O)(=O)c1ncccc1-2)N1CCOCC1`, the IC50 came to 530 nM.

For the compound `O=C(c1nn(-c2ccc3c(c2)OCCO3)c2c1CS(=O)(=O)c1ccccc1-2)N1CCOCC1`, the IC50 came out at 670 nM.

Turning to `Cc1nc2ccc(-n3nc(C(=O)N4CCOCC4)c4c3-c3ccccc3S(=O)(=O)C4)cc2s1`, the IC50 was found to be 662 nM.

Regarding `O=C(c1nn(C2CCCN(CCN3CCOCC3)C2)c2c1CS(=O)(=O)c1c(Cl)cccc1-2)N1CCOCC1` (stereo not given), the IC50 worked out at 120 nM.

`CC(=O)Nc1nc2c(s1)S(=O)(=O)Cc1c(C(=O)N3CCOCC3)nn(C3CCOCC3)c1-2` gave an IC50 of 284 nM.

`O=C(c1nn(C2CCCN(CCO)C2)c2c1CS(=O)(=O)c1ccccc1-2)N1CCOCC1` (stereo not given): the half-inhibitory concentration (IC50) was found to be 815 nM.

`CS(=O)(=O)C1CCN(Cc2cccc(-n3nc(C(=O)N4CCOCC4)c4c3-c3ccccc3S(=O)(=O)C4)c2)C1` (stereo not given) came in with an IC50 of 464 nM.

In turn, `O=C(c1nn(-c2cccnc2)c2c1CS(=O)(=O)c1ccccc1-2)N1CCOCC1` yielded an IC50 of 1130 nM.

In turn, `O=C(c1nc(-c2ccccc2)n2c1CS(=O)(=O)c1ccccc1-2)N1CCOCC1` gave an IC50 of 2740 nM.

Take `O=C(c1nn(-c2ccc(CN3CCOCC3)cc2)c2c1CS(=O)(=O)c1ncccc1-2)N1CCOCC1`: the IC50 is 400 nM.

Compound `O=C(c1nn(-c2ccc(CN3CCC(O)C3)cc2)c2c1CS(=O)(=O)c1ccccc1-2)N1CCOCC1` (stereo not given) came in with an IC50 of 859 nM.

`COc1cccc2c1S(=O)(=O)Cc1c(C(=O)N3CCOCC3)nn([C@H]3CCCN(CCN4CC(F)C4)C3)c1-2` yielded an IC50 of 62 nM.

`O=C(c1nn(-c2cccc(CN3CCC(O)CC3)c2)c2c1CS(=O)(=O)c1ccccc1-2)N1CCOCC1` had an IC50 of 573 nM.

As for `Cn1nc(C(=O)N2CCOCC2)c2c1-c1ccccc1S(=O)(=O)C2Cc1ccccc1` (stereo not given), the IC50 is 5270 nM.

Turning to `O=C(c1nn([C@@H]2CCCN(CCC3CCOCC3)C2)c2c1CS(=O)(=O)c1ccccc1-2)N1CCOCC1`, the half-inhibitory concentration (IC50) was determined as 2200 nM.

In turn, `Cc1ccccc1-n1nc(C(=O)N2CCOCC2)c2c1-c1ccccc1S(=O)(=O)C2` came in with an IC50 of 2280 nM.

`COCCN1CCC[C@@H](n2nc(C(=O)N3CCOCC3)c3c2-c2ccccc2S(=O)(=O)C3)C1` came in with an IC50 of 3550 nM.

In the case of `O=C(c1nn([C@H]2CCCN(Cc3cccnc3)C2)c2c1CS(=O)(=O)c1ccccc1-2)N1CCOCC1`, the IC50 was determined as 85 nM.

For `O=C(c1nn(-c2ccc(CN3CC(F)(F)C3)cc2)c2c1CS(=O)(=O)c1ccccc1-2)N1CCOCC1`, the IC50 amounted to 395 nM.

`O=C(c1nn(C2CN3CCC2CC3)c2c1CS(=O)(=O)c1ccccc1-2)N1CCOCC1` (stereo not given) had an IC50 of 10200 nM.

As for `CN(C)Cc1cccc(-n2nc(C(=O)N3CCOCC3)c3c2-c2ccccc2S(=O)(=O)C3)c1`, the IC50 was determined as 1110 nM.

As to `O=C(c1nn(-c2ccc(Cl)cc2)c2c1CS(=O)(=O)c1ccccc1-2)N1CCOCC1`, the IC50 amounted to 895 nM.

Turning to `O=C(c1nn(CC2CCCCC2)c2c1CS(=O)(=O)c1ccccc1-2)N1CCOCC1`, the IC50 amounted to 509 nM.

In the case of `COCCNCc1ccc(-n2nc(C(=O)N3CCOCC3)c3c2-c2ccccc2S(=O)(=O)C3)cc1`, the IC50 is 164 nM.

Compound `O=C(c1nn(-c2ccccc2)c2c1CS(=O)(=O)c1c(F)cccc1-2)N1CCOCC1` returned an IC50 of 424 nM.

Compound `CC(C)CCOC1CCN(Cc2ccc(-n3nc(C(=O)N4CCOCC4)c4c3-c3ccccc3S(=O)(=O)C4)cc2)C1` (stereo not given) yielded an IC50 of 167 nM.

As to `O=C(c1nn(C2CCNCC2)c2c1CS(=O)(=O)c1ccccc1-2)N1CCOCC1`, the IC50 is 1520 nM.

On to `O=C(c1nn(-c2cccc(N3CCCC3)c2)c2c1CS(=O)(=O)c1ccccc1-2)N1CCOCC1`, for which the IC50 was 4950 nM.

Turning to `O=C(c1nn([C@@H]2CCCNC2)c2c1CS(=O)(=O)c1ccccc1-2)N1CCOCC1`, the IC50 worked out at 3000 nM.

Consider `O=C(c1nn(-c2cccc(N3CCOCC3)c2)c2c1CS(=O)(=O)c1ccccc1-2)N1CCOCC1`, for which the IC50 is 673 nM.

The compound `O=C(c1nn([C@H]2CCCN(c3ccncc3)C2)c2c1CS(=O)(=O)c1ccccc1-2)N1CCOCC1` showed an IC50 of 133 nM.

Regarding `O=C(c1nn(C2CCC(CN3CCOCC3)CC2)c2c1CS(=O)(=O)c1ccccc1-2)N1CCOCC1` (stereo not given), the IC50 came out at 912 nM.
